In US6908899B2, “Pro-inflammatory fibrinopeptide” (U.S. Dept. of Veterans Affairs, priority 2001, dated 2005):
Where no end group is shown, it is not given here. [ ]: non-standard residue; d: D form. Pen = CC(C)(S)[C@H](N)C(=O)O

Legend:
[1] = tested on: RA patients; settings: double blind clinical trial (Reference 29); cited from earlier work
[2] = tested on: monocytes; settings: monocytes stimulated with PHA; for comparison; cited from earlier work
[3] = tested on: foreskin fibroblasts; experiment: ICAM-1 cell-ELISA (O.D. 492); format: cell-based, human; settings: overnight; for ICAM-1 O.D. 492: Foreskin line, IL-1 0.5 ng/ml, GPRP or GPRP-amide 1 mg/ml, fibrinogen receptor peptide 0.1 mg/ml, FPA, FPB 10^−4 M
[4] = tested on: RA synovial fibroblasts; experiment: ICAM-1 cell-ELISA (O.D. 492); format: cell-based, human; settings: for ICAM-1 O.D. 492: overnight, IL-1 0.5 ng/ml, GPRP or GPRP-amide 1 mg/ml, fibrinogen receptor peptide 0.1 mg/ml, FPA, FPB 10^−4 M; for Effect on ICAM-1 induction: synovial cell incubation with coagulation-related peptides
[5] = tested on: synovial cells from patients with osteoarthritis (OA); experiment: ICAM-1 ELISA (O.D. 492); format: cell-based, human; settings: OA line; overnight; IL-1 0.5 ng/ml, GPRP or GPRP-amide 1 mg/ml, fibrinogen receptor peptide 0.1 mg/ml, FPA, FPB 10^−4 M
[6] = tested on: OA synovial cells; experiment: PDTC inhibition of IL-1 and GPRP induction of ICAM-1 (ELISA); format: cell-based, human; settings: PDTC pre-incubation 1.5 hours, IL-1 or GPRP overnight, ± SD, triplicate
Excerpt: (§1) NF-kappaB activation is already well known to affect a broad array of immediate-early gene products, such as TNF, interleukins, chemokines and colony stimulating factors; genes that are tightly regulated during inflammation and wound healing. […] PDTC is an anti-oxidant that prevents NF-kappaB activation and its translocation to the nucleus (Reference 26). […] [table]

[7] = tested on: RA synovial cells; experiment: as above; format: cell-based, human; settings: for ICAM-1 O.D. 492: PDTC pre-incubation 1.5 hours, IL-1 or GPRP overnight, ± SD, triplicate
Excerpt: as §1

[8] = tested on: RA synovial fibroblasts; experiment: Binding of biotinylated peptide by flow cytometry; set-up: species or system human; settings: RA #16, Avidin-FITC
Excerpt: Table 9 illustrates an analysis of the binding of biotinylated amino acid sequence 17-28 of human fibrinogen Aα Chain (SAC[KBtn]) to RA synovial fibroblasts by Flow Cytometry. The biotinylated control peptide (KREE-SEQ ID NO:3) represents corresponding sequences derived from the B/beta chain of fibrinogen following removal of Fibrinopeptide B.

[9] = tested on: Synovial cells; experiment: SAC competition assay by flow cytometry; format: binding, human; settings: for Mean (fluorescence of bound SAC[KBtn]): Avidin-FITC
Excerpt: Thus, labeled peptide could facilitate the isolation, identification and characterization of its receptor, through standard immunological techniques such as immunohistochemistry, flow cytometry and immunoprecipitation.

[10] = tested on: fibrin polymerization; settings: cited from earlier work
[11] = tested on: foreskin fibroblast cells; experiment: In vitro T cell adhesion assay; format: cell-based, human; settings: Foreskin line; IL-1 beta 1 ng/ml overnight; ± SD, triplicate wells
[12] = tested on: RA derived synovial cells; experiment: In vitro T cell adhesion assay; format: cell-based, human; settings: IL-1 beta 1 ng/ml overnight, ± SD, triplicate wells
[13] = tested on: OA derived synovial cells; experiment: In vitro T cell adhesion assay; format: cell-based, human; settings: OA line 15; IL-1 beta 1 ng/ml overnight; ± SD, triplicate wells
[14] = tested on: RA synovial fibroblasts; experiment: GRO-alpha ELISA on cell culture supernatants; format: cell-based, human; settings: RA line 7
Procedure: I used commercial ELISA kits to assay cell culture supernatants of RA fibroblasts that were cultured for both 24 and 48 hours with or without peptide.

[15] = unlabeled competitor 2.5 mg for 3 hours, then labeled SAC[KBtn] for 1 hour

fibrin polymerization, sequence (P02679 27-453, one chain of several): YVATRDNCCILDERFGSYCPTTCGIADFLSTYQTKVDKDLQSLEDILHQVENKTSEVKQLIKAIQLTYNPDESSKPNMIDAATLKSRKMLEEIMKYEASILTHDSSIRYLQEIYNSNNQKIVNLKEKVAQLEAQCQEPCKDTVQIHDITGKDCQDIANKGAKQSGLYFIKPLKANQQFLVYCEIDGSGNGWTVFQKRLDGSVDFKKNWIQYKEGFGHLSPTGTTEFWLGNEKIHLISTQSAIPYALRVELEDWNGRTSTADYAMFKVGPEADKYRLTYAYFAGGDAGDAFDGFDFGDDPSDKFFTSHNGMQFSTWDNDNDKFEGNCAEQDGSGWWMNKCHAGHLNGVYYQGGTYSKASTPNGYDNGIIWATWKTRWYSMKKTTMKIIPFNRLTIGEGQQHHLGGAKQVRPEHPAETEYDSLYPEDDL
fibrin polymerization, sequence (P02671 20-639 isoform P02671-2 partner limits assumed, one chain of several): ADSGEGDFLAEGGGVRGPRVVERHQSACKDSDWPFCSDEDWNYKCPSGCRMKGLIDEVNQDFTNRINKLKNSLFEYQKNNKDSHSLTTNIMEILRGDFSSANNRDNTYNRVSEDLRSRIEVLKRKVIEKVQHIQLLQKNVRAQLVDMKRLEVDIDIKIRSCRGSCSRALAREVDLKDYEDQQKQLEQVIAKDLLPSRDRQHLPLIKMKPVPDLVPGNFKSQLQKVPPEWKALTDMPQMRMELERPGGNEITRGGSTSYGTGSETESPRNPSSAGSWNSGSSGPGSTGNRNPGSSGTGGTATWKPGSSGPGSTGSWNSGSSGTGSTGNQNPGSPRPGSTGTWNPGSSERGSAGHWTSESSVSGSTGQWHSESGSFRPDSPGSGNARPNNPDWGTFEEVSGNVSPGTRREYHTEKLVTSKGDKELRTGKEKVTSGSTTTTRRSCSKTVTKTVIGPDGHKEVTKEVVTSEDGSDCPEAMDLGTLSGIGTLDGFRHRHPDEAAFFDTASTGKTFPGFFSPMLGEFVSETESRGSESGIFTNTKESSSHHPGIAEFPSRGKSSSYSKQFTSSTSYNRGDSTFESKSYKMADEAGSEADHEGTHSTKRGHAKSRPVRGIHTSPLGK

For `C[C@]12Cc3c[nH]nc3C[C@@H]1CC[C@@H]1[C@@H]2CC[C@@]2(C)[C@H]1CC[C@]2(C)O` [stanozolol], the “Clinical outcome in RA patients” value [1] is given as “clinical benefit”.

In the case of phytohemagglutinin, the “Increase of IL-8 production” value [2] is listed as “approximately three”.

For “FPB: Fibrinopeptide B, coagulation-related peptide (QGVNDNEEGFFSAR; ends and bridges not checked; UniProt P02675 31-44, looked up) [reference compound]”, the “ICAM-1 O.D. 492” value [3] was 0.80 ± .02, the “ICAM-1 O.D. 492” value ([4]; RA line 1) was 0.67 ± .04 and the “ICAM-1 O.D. 492” value ([4]; RA line 2) was 0.47 ± .02. The “Effect on ICAM-1 induction” value [4] was “no effect” and the “ICAM-1 O.D. 492” value [5] was 0.41 ± .04.

In the case of “FPA: amino acids 1 through 16 of the fibrinogen A/alpha chains cleaved off by thrombin (ADSGEGDFLAEGGGVR; Fibrinopeptide A; UniProt P02671 20-35, looked up) [reference compound]”, the “ICAM-1 O.D. 492” value [3] is reported as 0.69 ± .02, the “ICAM-1 O.D. 492” value ([4]; RA line 1) is reported as 0.61 ± .05 and the “ICAM-1 O.D. 492” value ([4]; RA line 2) is reported as 0.43 ± .03. For the same molecule, the “Effect on ICAM-1 induction” value [4] was “no effect” and the “ICAM-1 O.D. 492” value [5] was 0.31 ± .005.

For `S=C(S)N1CCCC1` [PDTC, pyrrolidinedithio-carbamate], the “ICAM-1 O.D. 492” value ([6]; OA line 2) was 0.65 ± .03, the “ICAM-1 O.D. 492” value ([6]; OA line 8) was 0.55 ± .04 and the “ICAM-1 O.D. 492” value ([7]; RA line 5) was 0.75 ± .06. The “ICAM-1 O.D. 492” value ([7]; RA line 6) was 0.61 ± .02 and the “Effect on increase in ICAM-1 expression induced by Interleukin-1 and by GPRP” value ([7]; inclusion of PDTC) was “stopped the entire increase in ICAM-1 expression”.

For “GPRVVERHQSAC[KBtn] (GPRVVERHQSACK) [SAC [KBtn]]”, the “% Cells Positive” value ([8]; 100 ug biotinylated peptide) was 86.3%, the “Mean Fluorescent Channel” value ([8]; 100 ug biotinylated peptide) was 257.9 and the “% Cells Positive” value ([8]; 200 ug biotinylated peptide) was 80.0%. The “Mean Fluorescent Channel” value ([8]; 200 ug biotinylated peptide) was 125.1 and the “Mean (fluorescence of bound SAC[KBtn])” value ([9]; labeled SAC[KBtn] without competitor) was 51.20.

For “GPRP-amide: GPRP with the carboxyl group at the end of Pro4 changed to an amide group (OH to NH2) (GPRP-NH2)”, the “Effectiveness at inhibiting polymerization relative to H-Gly-Pro-Arg-Pro-OH” value ([10]; Reference 20) is given as “approximately three and one-half”, the “ICAM-1 O.D. 492” value [3] is given as 0.80 ± .01 and the “ICAM-1 O.D. 492” value ([4]; RA line 1) is given as 0.65 ± .02. The “ICAM-1 O.D. 492” value ([4]; RA line 2) was 0.49 ± .02, the “Induction of ICAM-1 in synovial fibroblasts” value ([4]; amide analog substituted for GPRP) was “totally ineffective” and the “ICAM-1 O.D. 492” value [5] was 0.44 ± .01.

For “GHRPLDKKREE[KBtn] (GHRPLDKKREEK) [KREE [KBtn], biotinylated control peptide derived from the B/beta chain of fibrinogen, reference compound]”, the “% Cells Positive” value ([8]; 100 ug biotinylated peptide) was 10.6% and the “Mean Fluorescent Channel” value ([8]; 100 ug biotinylated peptide) was 20.37.

In the case of “Ac-[Pen]RGDC (cysteine pairing not given here) [Fib. Recept. Pept., reference compound]”, the “ICAM-1 O.D. 492” value [3] is reported as 0.73 ± .08, the “ICAM-1 O.D. 492” value ([4]; RA line 1) is reported as 0.56 ± .02 and the “ICAM-1 O.D. 492” value ([4]; RA line 2) is reported as 0.42 ± .01. For the same molecule, the “ICAM-1 O.D. 492” value [5] was 0.38 ± .02.

In the case of Gly-Pro-Arg [reference compound], the “Inhibition of fibrin polymerization” value ([10]; literature (Reference 25)) is given as “functions well as a polymerization inhibitor”.

With “IL-1: cytokine, an inducer of ICAM-1, positive control [reference compound]” the “Adherent T cell numbers” value [11] was 94 ± 16, the “Adherent T cell numbers” value ([12]; RA line 7) was 116 ± 14 and the “Adherent T cell numbers” value ([12]; RA line 8) was 58 ± 21. For the same molecule, the “ICAM-1 O.D. 492” value [3] was 1.77 ± .13, the “Adherent T cell numbers” value [13] was 66 ± 19 and the “ICAM-1 O.D. 492” value ([4]; RA line 1) was 1.74 ± .08. The “ICAM-1 O.D. 492” value ([4]; RA line 2) was 1.18 ± .03, the “ICAM-1 O.D. 492” value ([6]; OA line 2) was 1.60 ± .03 and the “ICAM-1 O.D. 492” value ([6]; OA line 8) was 1.51 ± .05. For the same molecule, the “ICAM-1 O.D. 492” value ([7]; RA line 5) was 1.88 ± .05, the “ICAM-1 O.D. 492” value ([7]; RA line 6) was 1.80 ± .04 and the “ICAM-1 O.D. 492” value [5] was 1.36 ± .03.

With “GPRVVERHQSAC (Unknown. Obtained from a commercial source.)” the “Competition with biotin-labeled SAC for binding to human synovial fibroblasts” value ([9]; unlabeled competitor) was “can compete” and the “Mean (fluorescence of bound SAC[KBtn])” value [9, 15] was 36.30.

B1: interferon γ: positive control for foreskin fibroblasts (protein, UniProt P01579 24-161, looked up)
Interferon gamma: QDPYVKEAENLKKYFNAGHSDVADNGTLFLGILKNWKEESDRKIMQSQIVSFYFKLFKNFKDDQSIQKSVETIKEDMNVKFFNSNKKKRDDFEKLTNYSVTDLNVQRKAIHELIQVMAELSPAAKTGKRKRSQMLFRG
With B1 the “ICAM-1 expression O.D. 492” value ([3]; Foreskin fibroblasts, fibrin clots 0.6 mg/ml, GPRP 1 mg/ml or interferon γ 200 U/ml, mean ± SD) was 1.57 ± .13.

B2: Fibrinogen: plasma protein precursor of fibrin; unlabeled competitor in Table 10 (protein)
chain 1: ADSGEGDFLAEGGGVRGPRVVERHQSACKDSDWPFCSDEDWNYKCPSGCRMKGLIDEVNQDFTNRINKLKNSLFEYQKNNKDSHSLTTNIMEILRGDFSSANNRDNTYNRVSEDLRSRIEVLKRKVIEKVQHIQLLQKNVRAQLVDMKRLEVDIDIKIRSCRGSCSRALAREVDLKDYEDQQKQLEQVIAKDLLPSRDRQHLPLIKMKPVPDLVPGNFKSQLQKVPPEWKALTDMPQMRMELERPGGNEITRGGSTSYGTGSETESPRNPSSAGSWNSGSSGPGSTGNRNPGSSGTGGTATWKPGSSGPGSTGSWNSGSSGTGSTGNQNPGSPRPGSTGTWNPGSSERGSAGHWTSESSVSGSTGQWHSESGSFRPDSPGSGNARPNNPDWGTFEEVSGNVSPGTRREYHTEKLVTSKGDKELRTGKEKVTSGSTTTTRRSCSKTVTKTVIGPDGHKEVTKEVVTSEDGSDCPEAMDLGTLSGIGTLDGFRHRHPDEAAFFDTASTGKTFPGFFSPMLGEFVSETESRGSESGIFTNTKESSSHHPGIAEFPSRGKSSSYSKQFTSSTSYNRGDSTFESKSYKMADEAGSEADHEGTHSTKRGHAKSRPV
chain 2: QGVNDNEEGFFSARGHRPLDKKREEAPSLRPAPPPISGGGYRARPAKAAATQKKVERKAPDAGGCLHADPDLGVLCPTGCQLQEALLQQERPIRNSVDELNNNVEAVSQTSSSSFQYMYLLKDLWQKRQKQVKDNENVVNEYSSELEKHQLYIDETVNSNIPTNLRVLRSILENLRSKIQKLESDVSAQMEYCRTPCTVSCNIPVVSGKECEEIIRKGGETSEMYLIQPDSSVKPYRVYCDMNTENGGWTVIQNRQDGSVDFGRKWDPYKQGFGNVATNTDGKNYCGLPGEYWLGNDKISQLTRMGPTELLIEMEDWKGDKVKAHYGGFTVQNEANKYQISVNKYRGTAGNALMDGASQLMGENRTMTIHNGMFFSTYDRDNDGWLTSDPRKQCSKEDGGGWWYNRCHAANPNGRYYWGGQYTWDMAKHGTDDGVVWMNWKGSWYSMRKMSMKIRPFFPQQ
chain 3: YVATRDNCCILDERFGSYCPTTCGIADFLSTYQTKVDKDLQSLEDILHQVENKTSEVKQLIKAIQLTYNPDESSKPNMIDAATLKSRKMLEEIMKYEASILTHDSSIRYLQEIYNSNNQKIVNLKEKVAQLEAQCQEPCKDTVQIHDITGKDCQDIANKGAKQSGLYFIKPLKANQQFLVYCEIDGSGNGWTVFQKRLDGSVDFKKNWIQYKEGFGHLSPTGTTEFWLGNEKIHLISTQSAIPYALRVELEDWNGRTSTADYAMFKVGPEADKYRLTYAYFAGGDAGDAFDGFDFGDDPSDKFFTSHNGMQFSTWDNDNDKFEGNCAEQDGSGWWMNKCHAGHLNGVYYQGGTYSKASTPNGYDNGIIWATWKTRWYSMKKTTMKIIPFNRLTIGEGQQHHLGGAKQAGDV
With B2 the “Mean (fluorescence of bound SAC[KBtn])” value [9, 15] was 21.63, the GRO-alpha [14] was 8000 pg/mL and the “GRO-alpha Fold Increase” value ([14]; versus control) was 145X.
